Source: ChEMBL document CHEMBL3739322, “Novel oxime-bearing coumarin derivatives act as potent Nrf2/ARE activators in vitro and in mouse model” (Eur J Med Chem, 2015)
Calls of active or inactive are those of the source. No cut-off for these calls is given here.

Legend:
[1] = Antioxidant activity assessed as DPPH radical scavenging activity; type: physicochemical
[2] = Cytotoxicity against human HSC3 cells after 24 hrs by MTT assay; type: cell-based; conditions: hsc-3, 24 h
[3] = target: T1, Nuclear factor erythroid 2-related factor 2 (Homo sapiens) (UniProt Q16236); assay: Activation of Nrf2 in human HSC3-ARE9 cells assessed as increase of ARE-mediated luciferase expression at 50 uM after 24 hrs relative to control; type: cell-based
T1 sequence (whole entry): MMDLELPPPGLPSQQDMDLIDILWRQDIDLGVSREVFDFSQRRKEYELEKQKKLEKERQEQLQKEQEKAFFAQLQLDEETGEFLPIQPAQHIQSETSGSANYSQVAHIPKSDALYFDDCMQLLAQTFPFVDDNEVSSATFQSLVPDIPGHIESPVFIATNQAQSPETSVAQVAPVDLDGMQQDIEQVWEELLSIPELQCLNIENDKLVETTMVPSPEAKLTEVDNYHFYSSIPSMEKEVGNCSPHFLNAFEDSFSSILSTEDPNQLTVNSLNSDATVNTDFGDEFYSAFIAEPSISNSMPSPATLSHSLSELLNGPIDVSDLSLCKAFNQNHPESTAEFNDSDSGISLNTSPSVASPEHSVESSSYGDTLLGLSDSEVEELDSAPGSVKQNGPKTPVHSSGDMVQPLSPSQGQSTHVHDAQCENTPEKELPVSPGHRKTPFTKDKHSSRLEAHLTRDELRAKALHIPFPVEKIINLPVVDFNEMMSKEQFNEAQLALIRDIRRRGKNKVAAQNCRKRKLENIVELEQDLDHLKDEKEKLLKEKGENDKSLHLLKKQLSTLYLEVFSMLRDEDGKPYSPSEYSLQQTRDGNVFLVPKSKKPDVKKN

[4] = target: T1, Nuclear factor erythroid 2-related factor 2 (Homo sapiens); assay: Activation of Nrf2 in human HSC3-ARE9 cells assessed as increase of ARE-mediated luciferase expression after 24 hrs; type: cell-based
[5] = target: T1, Nuclear factor erythroid 2-related factor 2 (Homo sapiens); assay: Activation of Nrf2 in human HSC3-ARE9 cells assessed as increase of ARE-mediated AKR1C1 mRNA expression at 50 uM after 24 hrs by RT-PCR analysis relative to control; type: cell-based
[6] = target: T1, Nuclear factor erythroid 2-related factor 2 (Homo sapiens); assay: Activation of Nrf2 in human HSC3-ARE9 cells assessed as increase of ARE-mediated GCLC mRNA expression at 50 uM after 24 hrs by RT-PCR analysis relative to control; type: cell-based
[7] = target: T1, Nuclear factor erythroid 2-related factor 2 (Homo sapiens); assay: Activation of Nrf2 in human HSC3-ARE9 cells assessed as increase of ARE-mediated Prx1 mRNA expression at 50 uM after 24 hrs by RT-PCR analysis relative to control; type: cell-based
[8] = target: T1, Nuclear factor erythroid 2-related factor 2 (Homo sapiens); assay: Activation of Nrf2 in human HSC3-ARE9 cells assessed as increase of ARE-mediated AKR1C2 mRNA expression at 50 uM after 24 hrs by RT-PCR analysis relative to control; type: cell-based
[9] = target: T1, Nuclear factor erythroid 2-related factor 2 (Homo sapiens); assay: Activation of Nrf2 in human HSC3-ARE9 cells assessed as increase of ARE-mediated luciferase expression at 50 uM after 24 hrs in presence of PI3K inhibitor LY294002; type: cell-based
[10] = target: T1, Nuclear factor erythroid 2-related factor 2 (Homo sapiens); assay: Activation of Nrf2 in human HSC3-ARE9 cells assessed as increase of ARE-mediated GR mRNA expression at 50 uM after 24 hrs by RT-PCR analysis relative to control; type: cell-based
[11] = target: T1, Nuclear factor erythroid 2-related factor 2 (Homo sapiens); assay: Activation of Nrf2 in human HSC3-ARE9 cells assessed as increase of ARE-mediated ABCC3 mRNA expression at 50 uM after 24 hrs by RT-PCR analysis relative to control; type: cell-based
[12] = target: T1, Nuclear factor erythroid 2-related factor 2 (Homo sapiens); assay: Activation of Nrf2 in human HSC3-ARE9 cells assessed as increase of ARE-mediated AKR1C1 protein expression after 24 hrs by Western blot analysis; type: cell-based
[13] = system: HSC-3; assay: Inhibition of t-BOOH-induced oxidative stress in human HSC3 cells assessed as intracellular ROS level at 50 uM after 24 hrs by DCF fluorescence assay; type: functional, cell-based
[14] = target: T1, Nuclear factor erythroid 2-related factor 2 (Homo sapiens); assay: Activation of Nrf2 in human HSC3-ARE9 cells assessed as increase of ARE-mediated AKR1C3 mRNA expression at 50 uM after 24 hrs by RT-PCR analysis relative to control; type: cell-based
[15] = system: Mus musculus; assay: Toxicity in C57BL/6J mouse assessed as change in body weight at 50 mg/kg, po qd for 7 days; type: organism-based; conditions: in vivo, 168 h
[16] = target: T1, Nuclear factor erythroid 2-related factor 2 (Homo sapiens); assay: Activation of Nrf2 in human HSC3-ARE9 cells assessed as increase of ARE-mediated Prx1 protein expression after 24 hrs by Western blot analysis; type: cell-based
[17] = system: Mus musculus; assay: Induction of Nrf2-mediated cytoprotective activity in C57BL/6J mouse assessed as increase of AKR1C1 level in liver at 50 mg/kg, po qd for 7 days measured after 24 hrs of last dose; type: functional, organism-based
[18] = target: T1, Nuclear factor erythroid 2-related factor 2 (Homo sapiens); assay: Activation of Nrf2 in human HSC3-ARE9 cells assessed as increase of ARE-mediated GCLC protein expression after 24 hrs by Western blot analysis; type: cell-based
[19] = target: T1, Nuclear factor erythroid 2-related factor 2 (Homo sapiens); assay: Activation of Nrf2 in human HSC3-ARE9 cells assessed as increase of ARE-mediated luciferase expression at 50 uM after 24 hrs in presence of PKC inhibitor Ro-31-8220; type: cell-based
[20] = target: T1, Nuclear factor erythroid 2-related factor 2 (Homo sapiens); assay: Activation of Nrf2 in human HSC3-ARE9 cells assessed as increase of protein level in nucleus after 24 hrs by Western blot analysis; type: cell-based
[21] = system: Mus musculus; assay: Induction of Nrf2-mediated cytoprotective activity in C57BL/6J mouse assessed as increase of HO-1 level in liver at 50 mg/kg, po qd for 7 days measured after 24 hrs of last dose; type: functional, organism-based
[22] = system: Mus musculus; assay: Induction of Nrf2-mediated cytoprotective activity in C57BL/6J mouse assessed as increase of GR level in liver at 50 mg/kg, po qd for 7 days measured after 24 hrs of last dose; type: functional, organism-based
[23] = target: T1, Nuclear factor erythroid 2-related factor 2 (Homo sapiens); assay: Activation of Nrf2 in human HSC3-ARE9 cells assessed as increase of ARE-mediated luciferase expression at 50 uM after 24 hrs in presence of MEK inhibitor U0126; type: cell-based
[24] = target: T1, Nuclear factor erythroid 2-related factor 2 (Homo sapiens); assay: Increase of Nrf2 phosphorylation at ser-40 in human HSC3 cells at 50 uM after 24 hrs by Western blot analysis relative to control; type: cell-based; conditions: HSC-3
[25] = target: T1, Nuclear factor erythroid 2-related factor 2 (Homo sapiens); assay: Activation of Nrf2 in human HSC3-ARE9 cells assessed as increase of ARE-mediated luciferase expression at 50 uM after 24 hrs in presence of p38 inhibitor SB203580; type: cell-based
[26] = target: T1, Nuclear factor erythroid 2-related factor 2 (Homo sapiens); assay: Activation of Nrf2 in human HSC3-ARE9 cells assessed as increase of ARE-mediated NQO1 mRNA expression at 50 uM after 24 hrs by RT-PCR analysis relative to control; type: cell-based

## O=c1ccc2cc(OC/C(=N\O)c3ccccc3)ccc2o1
[1]
  EC50: > 400 µM
[2]
  Activity: Non-toxic
[3]
  fold change (FC): 3.02
[4]
  Activity: Dose-dependent effect

## O=c1oc2ccccc2cc1OC/C(=N\O)c1ccc(F)cc1
[1]
  EC50: > 400 µM
[2]
  Activity: Non-toxic
[3]
  fold change (FC): 3.25
[4]
  Activity: Dose-dependent effect

## O=c1oc2ccccc2cc1O [3-HYDROXYCOUMARIN]
[1]
  EC50: 65.8 µM
[3]
  fold change (FC): 0.94

## CC(C)(C)c1cc(O)ccc1O [E319]
[5]
  fold change (FC): 2.3
[1]
  EC50: 57.5 µM
[6]
  fold change (FC): 2
[3]
  fold change (FC): 2.01
[7]
  fold change (FC): 1.1

## O=C(COc1ccc2oc(=O)ccc2c1)Nc1ccccc1
[3]
  fold change (FC): 2.08

## C/C(COc1ccc2oc(=O)ccc2c1)=N\O
[3]
  fold change (FC): 1.64

## COc1ccc(NC(=O)COc2ccc3oc(=O)ccc3c2)cc1
[3]
  fold change (FC): 0.89

## O=C(COc1cc(=O)oc2ccccc12)Nc1ccccc1
[3]
  fold change (FC): 1.06

## O=c1ccc2ccc(O)cc2o1 [UMBELLIFERONE]
[1]
  EC50: > 400 µM
[3]
  fold change (FC): 0.98

## O=C(COc1ccc2oc(=O)ccc2c1)c1ccc(-c2ccccc2)cc1
[3]
  fold change (FC): 0.85

## O=c1oc2ccccc2cc1OC/C(=N\O)c1ccccc1
[8]
  fold change (FC): 1.4
[9]
  Activity: inactive
[10]
  fold change (FC): 1.3
[11]
  fold change (FC): 1.3
[5]
  fold change (FC): 1.5
[1]
  EC50: > 400 µM
[2]
  Activity: Non-toxic
[12]
  Activity: Dose-dependent effect
[13]
  inhibition: Active
[14]
  fold change (FC): 1.3
[15]
  Activity: Non-toxic
[6]
  fold change (FC): 1.6
[16]
  Activity: Dose-dependent effect
[17]
  Activity: Active
[18]
  Activity: Dose-dependent effect
[3]
  fold change (FC): 3.45
[19]
  Activity: inactive
[20]
  Activity: Dose-dependent effect
[21]
  Activity: Active
[22]
  Activity: Active
[23]
  Activity: Active
[24]
  Activity: 126%
[7]
  fold change (FC): 1.6
[4]
  Activity: Dose-dependent effect
[25]
  Activity: Active
[26]
  fold change (FC): 1.2

## COc1ccc(/C(COc2cc(=O)oc3ccccc23)=N/O)cc1
[3]
  fold change (FC): 1.76

## CC(=O)COc1cc(=O)oc2ccccc12
[3]
  fold change (FC): 0.79

## O=C(COc1cc2ccccc2oc1=O)Nc1ccc2ccccc2c1
[3]
  fold change (FC): 1.13

## O=c1ccc2cc(OC/C(=N\O)c3ccc(F)cc3)ccc2o1
[3]
  fold change (FC): 2.32

## O=C(COc1cc(=O)oc2ccccc12)c1ccc(F)cc1
[3]
  fold change (FC): 1.26

## O=C(COc1cc(=O)oc2ccccc12)Nc1ccc(F)cc1
[3]
  fold change (FC): 1.11

## O=C(COc1ccc2ccc(=O)oc2c1)c1ccc2ccccc2c1
[3]
  fold change (FC): 0.17

## O=C(COc1cc2ccccc2oc1=O)c1ccccc1
[3]
  fold change (FC): 1.72

## COc1ccc(NC(=O)COc2cc(=O)oc3ccccc23)cc1
[3]
  fold change (FC): 1.34

## O=c1oc2ccccc2cc1OC/C(=N\O)c1ccc(-c2ccccc2)cc1
[3]
  fold change (FC): 1.44

## O=C(COc1cc2ccccc2oc1=O)Nc1ccccc1
[3]
  fold change (FC): 2.51

## O=C(COc1cc(=O)oc2ccccc12)Nc1ccc(-c2ccccc2)cc1
[3]
  fold change (FC): 1.17

## C/C(COc1ccc2ccc(=O)oc2c1)=N\O
[3]
  fold change (FC): 1.68

## O=C(COc1cc2ccccc2oc1=O)Nc1ccc(-c2ccccc2)cc1
[3]
  fold change (FC): 1.22

## COc1ccc(C(=O)COc2cc(=O)oc3ccccc23)cc1
[3]
  fold change (FC): 1.36

## O=c1ccc2cc(O)ccc2o1 [6-HYDROXYCOUMARIN]
[1]
  EC50: > 400 µM
[3]
  fold change (FC): 0.99

## O=C(COc1ccc2ccc(=O)oc2c1)Nc1ccccc1
[3]
  fold change (FC): 2.27

## CC(=O)COc1ccc2ccc(=O)oc2c1
[3]
  fold change (FC): 1.09

## O=c1cc(O)c2ccccc2o1 [4-HYDROXYCOUMARINS]
[1]
  EC50: 351 µM
[3]
  fold change (FC): 0.84

## COc1ccc(/C(COc2cc3ccccc3oc2=O)=N/O)cc1
[3]
  fold change (FC): 1.49

## O=C(COc1cc2ccccc2oc1=O)c1ccc(-c2ccccc2)cc1
[3]
  fold change (FC): 0.98
